From PubChem BioAssay AID2060895 (Molecular Pharmacology Branch, DTP, NCI, 2025)

System: PDC 899932-113-R3-J6 complex spheroid viability
Experiment: Anticancer human tumor 899932-113-R3-J6-PDC patient-derived melanoma cell line growth inhibition [RAS]
Conditions: for IC50: curve of first compound; for viability, T/C: stronger effect = lower value
Method in brief: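 Tumour cells grown as complex spheroids with HUVEC endothelial cells and mesenchymal stem cells, treated with RAS pathway inhibitor combinations. Each agent spans half-log steps from near clinical Cmax, or 10 microM where Cmax is unknown.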
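Throughout, for viability, T/C: spheroids exposed to agents for seven days before readout; 100% = DMSO vehicle control wells.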

With `C=CC(=O)N1CCN(c2nc(OCC3CCCN3C)nc3c(F)c(-c4nc(N)cc(C)c4C(F)(F)F)c(Cl)cc23)C(C)C1` (configuration not stated) + CCn1c(-c2cccnc2C(C)OC)c2c3cc(ccc31)N1CCOC(CC(NC(=O)C(C(C)C)N(C)C(=O)C3(F)CCN(C(=O)C#CC(C)(C)N(C)C)CC3)C(=O)N3CCCC(N3)C(=O)OCC(C)(C)C2)C1 the IC50 (second compound 0.000949 µM) was over 1000 nM, the IC50 (second compound 0.003 µM) was over 1000 nM and the IC50 (second compound 0.00949 µM) was over 1000 nM. For the same molecule, the IC50 (second compound 0.03 µM) was over 1000 nM, the IC50 (second compound 0.0949 µM) was over 1000 nM and the IC50 (second compound 0.3 µM) was over 1000 nM. It also gave a viability, T/C (second compound 0.000949 µM, first compound 0.00316 µM) of 113%, a viability, T/C (second compound 0.000949 µM, first compound 0.01 µM) of 101% and a viability, T/C (second compound 0.000949 µM, first compound 0.0316 µM) of 118%. The viability, T/C (second compound 0.000949 µM, first compound 0.1 µM) was 106%, the viability, T/C (second compound 0.000949 µM, first compound 0.316 µM) was 108% and the viability, T/C (second compound 0.000949 µM, first compound 1 µM) was 105%. For the same molecule, the viability, T/C (second compound 0.003 µM, first compound 0.00316 µM) was 107%, the viability, T/C (second compound 0.003 µM, first compound 0.01 µM) was 118% and the viability, T/C (second compound 0.003 µM, first compound 0.0316 µM) was 105%. The viability, T/C (second compound 0.003 µM, first compound 0.1 µM) was 108%, the viability, T/C (second compound 0.003 µM, first compound 0.316 µM) was 108% and the viability, T/C (second compound 0.003 µM, first compound 1 µM) was 104%. It also gave a viability, T/C (second compound 0.00949 µM, first compound 0.00316 µM) of 110%, a viability, T/C (second compound 0.00949 µM, first compound 0.01 µM) of 107% and a viability, T/C (second compound 0.00949 µM, first compound 0.0316 µM) of 102%. For the same molecule, the viability, T/C (second compound 0.00949 µM, first compound 0.1 µM) was 107%, the viability, T/C (second compound 0.00949 µM, first compound 0.316 µM) was 112% and the viability, T/C (second compound 0.00949 µM, first compound 1 µM) was 106%. It also gave a viability, T/C (second compound 0.03 µM, first compound 0.00316 µM) of 106%, a viability, T/C (second compound 0.03 µM, first compound 0.01 µM) of 97% and a viability, T/C (second compound 0.03 µM, first compound 0.0316 µM) of 110%. For the same molecule, the viability, T/C (second compound 0.03 µM, first compound 0.1 µM) was 110%, the viability, T/C (second compound 0.03 µM, first compound 0.316 µM) was 114% and the viability, T/C (second compound 0.03 µM, first compound 1 µM) was 104%. For the same molecule, the viability, T/C (second compound 0.0949 µM, first compound 0.00316 µM) was 101%, the viability, T/C (second compound 0.0949 µM, first compound 0.01 µM) was 102% and the viability, T/C (second compound 0.0949 µM, first compound 0.0316 µM) was 96%. The viability, T/C (second compound 0.0949 µM, first compound 0.1 µM) was 101%, the viability, T/C (second compound 0.0949 µM, first compound 0.316 µM) was 95.2% and the viability, T/C (second compound 0.0949 µM, first compound 1 µM) was 92.8%. For the same molecule, the viability, T/C (second compound 0.3 µM, first compound 0.00316 µM) was 91.2%, the viability, T/C (second compound 0.3 µM, first compound 0.01 µM) was 87% and the viability, T/C (second compound 0.3 µM, first compound 0.0316 µM) was 92.1%. For the same molecule, the viability, T/C (second compound 0.3 µM, first compound 0.1 µM) was 87.9%, the viability, T/C (second compound 0.3 µM, first compound 0.316 µM) was 84.9% and the viability, T/C (second compound 0.3 µM, first compound 1 µM) was 90.9%.
